Measured values as given in patent publication US10328053B2 (Gilead Sciences, Inc., priority 2016, dated 2019).

How the values were obtained:
[1] = Hepatic Stability Assay (in vitro half-life method); format: in vitro ADME; design: dose or concentration left out as unconfirmed; settings: pooled cryopreserved hepatocytes, 37° C., 1×10^6 cells/mL, 0-6 hours, LC-MS/MS, 39.5 hours is the maximum detectable half life, read-out: t½ (converted)
Method in brief: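 Pooled cryopreserved hepatocytes (1×10^6 cells/mL) incubated with compound at […] test concentration, 37° C.; samples at 0, 1, 3 and 6 h quantified by LC-MS/MS. Half-life from rate of compound disappearance, scaled to predicted hepatic clearance via well-stirred model.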

[2] = tested on: HBV AD38 viral particles in HepG2 cell line overexpressing NTCP; assay: HBV DNA Quantification Assay; format: cell-based; settings: Hepatitis B virus, HepG2, 120 h, HBV-infected HepG2-NTCP cells, 5 days incubation, HBV DNA in culture supernatant (QuantiGene 2.0); geometric mean of a minimum of four determinations
Procedure: HBV DNA Quantification Assay
A HepG2 cell line overexpressing the HBV virus attachment receptor sodium-taurocholate cotransporting polypeptide (NTCP) was grown to confluency in DMEM growth medium, Dulbecco's Modified Eagle Medium without sodium pyruvate (Life Technologies, Rockville, Md.) supplemented with 10% FBS (Thermo Scientific, Waltham, Md.), 1% penicillin/streptomycin (Life Technologies, Rockville, Md.) and 2 mM L-glutamine (Life Technologies, Rockville, Md.) in T175 flasks. Cells were infected with HBV AD38 viral particles (Texcell, Frederick, USA) at 4000 genome equivalents per cell. After allowing viral infection to take place for 4 days, the infected cells were harvested from the flasks by trypsinization, washed twice with OptiMEM (Life Technologies, Rockville, Md.) and re-suspended in DMEM containing 2% FBS and 1% DMSO at a density of 0.25E6 cells/ml. Infected cells were seeded on 384 well collagen coated plates (Greiner, Austria) at a density of 20,000 cells/well containing serially diluted compounds of the present disclosure or DMSO (0.5%) in a final volume of 80 μl. The assay plates were incubated for a period of 5 days and the antiviral activity of the test compounds were assayed by detecting the presence of HBV DNA in the culture supernatant using the QuantiGene™ 2.0 nucleic acid quantification kit (Affymetrix, Santa Clara, Calif.).
The culture supernatant was harvested and treated with lysis buffer containing Proteinase K (Affymetrix, Santa Clara, Calif.). The supernatant was incubated with HBV viral DNA specific probes (Affymetrix, Santa Clara, Calif.) for 30 minutes at 55° C. This was followed by addition of 0.2M NaOH for 30 minutes at room temperature to denature the DNA, followed by addition of Neutralization buffer (Affymetrix, Santa Clara, Calif.). The resulting lysed and neutralized supernatant was then added to QuantiGene™ 2.0 384 well plates coated with capture oligonucleotides and incubated overnight at 55° C. The HBV specific probe set consists of Capture Extender oligonucleotides (CE's) and blocking probes. Following the overnight incubation, the wells were incubated for one hour sequentially with a Pre-Amplifier, Amplifier and Labeled probes conjugated to alkaline phosphatase with a wash step between incubations. After the final wash step, the alkaline phosphatase substrate (Luminol APS5) was added and the resulting luminescence signal was read in an EnVision Multilabel Plate Reader (PerkinElmer, Santa Clara, Calif.). The EC50 values were calculated from the fit of the dose—response curves to a four-parameter equation. All EC50 values represent geometric mean values of a minimum of four determinations.

Structure (SMILES) | half-life [1] | EC50 [2]
CNC(=O)C(C)(C)NC(=O)C(=O)c1c(C)c(C(=O)Nc2cc(F)c(F)c(F)c2)n2c1CCC2 [Example 83, 6-methyl-7-(2-((2-methyl-1-(methylamino)-1-oxopropan-2-yl)amino)-2-oxoacetyl)-N-(3,4,5-trifluorophenyl)-2,3-dihydro-1H-pyrrolizine-5-carboxamide] | 19.2 h | 199 nM
Cc1c(C(=O)C(=O)NC2(c3c[nH]nn3)CC2)c2n(c1C(=O)Nc1cccc(C#N)c1)CCC2 [Example 75, 7-(2-((1-(1H-1,2,3-triazol-4-yl)cyclopropyl)amino)-2-oxoacetyl)-N-(3-cyanophenyl)-6-methyl-2,3-dihydro-1H-pyrrolizine-5-carboxamide] | 17.3 h | 106 nM
Cc1c(C(=O)C(=O)NC2(c3c[nH]nn3)CC2)c2n(c1C(=O)Nc1cccc(Cl)c1F)CCC2 [Example 107, 7-(2-((1-(1H-1,2,3-triazol-4-yl)cyclopropyl)amino)-2-oxoacetyl)-N-(3-chloro-2-fluorophenyl)-6-methyl-2,3-dihydro-1H-pyrrolizine-5-carboxamide] | 9.8 h | 146 nM
Cc1c(C(=O)C(=O)NC2(c3cnn[nH]3)CC(F)(F)C2)c2n(c1C(=O)Nc1ccc(F)cc1)[C@@H]1C[C@@H]1C2 [Example 100, (1aR,6aR)-5-(2-((3,3-difluoro-1-(1H-1,2,3-triazol-5-yl)cyclobutyl)amino)-2-oxoacetyl)-N-(4-fluorophenyl)-4-methyl-1,1a,6,6a-tetrahydrocyclopropa[b]pyrrolizine-3-carboxamide] | 3.1 h | 3.7 nM
Cc1c(C(=O)C(=O)NC2(c3cnn[nH]3)CC2)c2n(c1C(=O)Nc1ccc(F)cc1F)CCC2 [Example 93, 7-(2-((1-(1H-1,2,3-triazol-5-yl)cyclopropyl)amino)-2-oxoacetyl)-N-(2,4-difluorophenyl)-6-methyl-2,3-dihydro-1H-pyrrolizine-5-carboxamide] | 29.9 h | 254 nM
Cc1c(C(=O)C(=O)NC2(C(=O)N3CC(F)C3)CC(F)(F)C2)c2n(c1C(=O)Nc1ccc(F)c(Cl)c1)CCC2 [Example 14, N-(3-chloro-4-fluorophenyl)-7-(2-((3,3-difluoro-1-(3-fluoroazetidine-1-carbonyl)cyclobutyl)amino)-2-oxoacetyl)-6-methyl-2,3-dihydro-1H-pyrrolizine-5-carboxamide] | 2.1 h | 8.8 nM
Cc1c(C(=O)C(=O)NC2(c3c[nH]nn3)CC2)c2n(c1C(=O)Nc1cc(F)c(F)cc1F)CCC2 [Example 90, 7-(2-((1-(1H-1,2,3-triazol-4-yl)cyclopropyl)amino)-2-oxoacetyl)-6-methyl-N-(2,4,5-trifluorophenyl)-2,3-dihydro-1H-pyrrolizine-5-carboxamide] | 31.4 h | 183 nM
C#CC1(NC(=O)C(=O)c2c(C)c(C(=O)Nc3cc(F)c(F)c(F)c3)n3c2CCC3)CC1 [Example 92, 7-(2-((1-ethynylcyclopropyl)amino)-2-oxoacetyl)-6-methyl-N-(3,4,5-trifluorophenyl)-2,3-dihydro-1H-pyrrolizine-5-carboxamide] | 2.2 h | 6.4 nM
Cc1c(C(=O)C(=O)NC2(c3c[nH]nn3)CC2)c2n(c1C(=O)Nc1ccc(F)c(Cl)c1)[C@@H]1C[C@@H]1C2 [Example 52, (1aR,6aR)-5-(2-((1-(1H-1,2,3-triazol-4-yl)cyclopropyl)amino)-2-oxoacetyl)-N-(3-chloro-4-fluorophenyl)-4-methyl-1,1a,6,6a-tetrahydrocyclopropa[b]pyrrolizine-3-carboxamide] | 4.2 h | 7.7 nM
Cc1c(C(=O)C(=O)NC2(c3c[nH]nn3)CC(F)(F)C2)c2n(c1C(=O)Nc1cc(F)c(F)c(F)c1)CCC2 [Example 53, 7-(2-((3,3-difluoro-1-(1H-1,2,3-triazol-4-yl)cyclobutyl)amino)-2-oxoacetyl)-6-methyl-N-(3,4,5-trifluorophenyl)-2,3-dihydro-1H-pyrrolizine-5-carboxamide] | 10.8 h | 3.2 nM
C#CC1(NC(=O)C(=O)c2c(C)c(C(=O)Nc3ccc(F)c(Cl)c3)n3c2CCC3)CC(F)(F)C1 [Example 60, N-(3-chloro-4-fluorophenyl)-7-(2-((1-ethynyl-3,3-difluorocyclobutyl)amino)-2-oxoacetyl)-6-methyl-2,3-dihydro-1H-pyrrolizine-5-carboxamide] | 3.9 h | 1.8 nM
CNC(=O)C1(NC(=O)C(=O)c2c(C)c(C(=O)Nc3ccc(F)c(C#N)c3)n3c2CCC3C)CC(F)(F)C1 (centres unmarked) [Example 19, N-(3-cyano-4-fluorophenyl)-7-(2-((3,3-difluoro-1-(methylcarbamoyl)cyclobutyl)amino)-2-oxoacetyl)-3,6-dimethyl-2,3-dihydro-1H-pyrrolizine-5-carboxamide] | 18.3 h | 167 nM
Cc1c(C(=O)C(=O)NC2(c3nncs3)CC2)c2n(c1C(=O)Nc1ccc(F)c(Cl)c1)[C@@H]1C[C@@H]1C2 [Example 54, (1aR,6aR)-5-(2-((1-(1,3,4-thiadiazol-2-yl)cyclopropyl)amino)-2-oxoacetyl)-N-(3-chloro-4-fluorophenyl)-4-methyl-1,1a,6,6a-tetrahydrocyclopropa[b]pyrrolizine-3-carboxamide] | 6.7 h | 7.8 nM
Cc1c(C(=O)C(=O)NC2(c3c[nH]nn3)CC(F)(F)C2)c2n(c1C(=O)Nc1cc(F)c(F)c(F)c1)[C@@H]1C[C@@H]1C2 [Example 40, (1aR,6aR)-5-(2-((3,3-difluoro-1-(1H-1,2,3-triazol-4-yl)cyclobutyl)amino)-2-oxoacetyl)-4-methyl-N-(3,4,5-trifluorophenyl)-1,1a,6,6a-tetrahydrocyclopropa[b]pyrrolizine-3-carboxamide] | 5.2 h | 1.9 nM
Cc1c(C(=O)C(=O)NC2(CNC3(C)CS(=O)(=O)C3)CC(F)(F)C2)c2n(c1C(=O)Nc1ccc(F)c(Cl)c1)CCC2 [Example 8, N-(3-chloro-4-fluorophenyl)-7-(2-((3,3-difluoro-1-(((3-methyl-1,1-dioxidothietan-3-yl)amino)methyl)cyclobutyl)amino)-2-oxoacetyl)-6-methyl-2,3-dihydro-1H-pyrrolizine-5-carboxamide] | 0.4 h | 72 nM
CNC(=O)[C@](C)(NC(=O)C(=O)c1c(C)c(C(=O)Nc2ccc(F)c(F)c2)n2c1CCC2)C(F)(F)F [Example 138, (S)—N-(3,4-difluorophenyl)-6-methyl-7-(2-oxo-2-((1,1,1-trifluoro-2-methyl-3-(methylamino)-3-oxopropan-2-yl)amino)acetyl)-2,3-dihydro-1H-pyrrolizine-5-carboxamide] | 17.9 h | 160 nM
CNC(=O)C1(NC(=O)C(=O)c2c(C)c(C(=O)Nc3cc(F)c(F)c(F)c3)n3c2C[C@H]2C[C@H]23)CC(F)(F)C1 [Example 38, (1aR,6aR)-5-(2-((3,3-difluoro-1-(methylcarbamoyl)cyclobutyl)amino)-2-oxoacetyl)-4-methyl-N-(3,4,5-trifluorophenyl)-1,1a,6,6a-tetrahydrocyclopropa[b]pyrrolizine-3-carboxamide] | 13.8 h | 13 nM
Cc1c(C(=O)C(=O)NC2(C(=O)N3CC4(C3)CN(S(C)(=O)=O)C4)CC(F)(F)C2)c2n(c1C(=O)Nc1ccc(F)c(Cl)c1)CCC2 [Example 28, N-(3-chloro-4-fluorophenyl)-7-(2-((3,3-difluoro-1-(6-(methylsulfonyl)-2,6-diazaspiro[3.3]heptane-2-carbonyl)cyclobutyl)amino)-2-oxoacetyl)-6-methyl-2,3-dihydro-1H-pyrrolizine-5-carboxamide] | 11.8 h | 112 nM
CNC(=O)C1(NC(=O)C(=O)c2c(C)c(C(=O)Nc3ccc(F)c(Cl)c3)n3c2[C@H]2C[C@H]2C3)CC(F)(F)C1 [Example 34, (1aR,6bS)—N-(3-chloro-4-fluorophenyl)-6-(2-((3,3-difluoro-1-(methylcarbamoyl)cyclobutyl)amino)-2-oxoacetyl)-5-methyl-1,1a,2,6b-tetrahydrocyclopropa[a]pyrrolizine-4-carboxamide] | 18.1 h | 202 nM
